Values belong to the molecule of their own block, whether it stands above or below them.
Tests used:
[1] = target: bovine serum albumin (Bos taurus, UniProt P02769); details: known drugs of Example 5, described as poor, medium or high binders; cited from earlier work
[2] = pKa by colloidal gold pH titration (ratio O.D. 620 nm/525 nm); details: colloidal gold pH titration of 1 mM drugs, 1% DMSO, (2) number the two pKa of doxycycline; for pKa: buffered gold colloid (gold nanoparticle solution), pKa observed
Description: (§1) A series of 50 mM buffers of pH 2-12 was then prepared (phosphate [pH 2, 3, 6, 7, 8], acetate [pH 4 and 5] and borate [pH 9, 10, 11, 12]), which were further diluted 5-fold with the gold colloid solution. The final pH of the 10 mM buffered colloid so obtained was then recorded. Drug solutions (10 μl, 100 mM in DMSO) were then pipeted in 1 mL of the buffered colloid and the mixture was vortex-mixed. After 30 minutes of incubation, the solutions were pipeted in 96-well polystyrene plates and the O.D. at 620 nm and 525 nm were recorded. The ratio O.D. 620 nm/O.D. 525 nm was calculated. This ratio relates to the agglutination of the colloid (i.e., the higher the ratio, the higher the agglutination). Typically, the ionization of a molecule creates charge(s) that may facilitate the agglutination of the colloid. Thus, titering a molecule with buffered gold colloids over a range of pHs can allow one to determine the ionization constant from the interpolated mid-point of the sigmoid curve drawn from agglutinated to unagglutinated colloid as a function of pH.

[3] = Williams and Lemke 2002; (1), (2) number the two pKa of doxycycline; cited from earlier work
[4] = physchem; details: pKa observed
Description: as §1

[5] = tested on: serum albumin; details: literature (Goodman and Gillman 1996); cited from earlier work
[6] = Redox potential with PANI-COOH conductive polymer (O.D. 450 nm); format: physicochemical; details: 100 μM drug, PANI-COOH at pH 4, 10 minutes room temperature; inferred from 450 nm signal
Description: The redox potential of known drugs were assayed. The known drug at a given final concentration (100 μM) was introduced in a buffered solution of a conductive polymer (poly[aniline-2-carboxylic acid], PANI-COOH) at pH 4. The solution was mixed and incubated at room temperature (10 minutes). The optical density was read at 450 nm. A sample blank containing the drug and phtalate buffer was prepared, incubated and read in the same way. The OD 450 nm of the blank solution was subtracted from the OD 450 nm of the conductive polymer reaction mixture. […] A linear relationship was observed between the 450 nm signal and the reduction potential of the known molecules (FIG. 15.), which allowed the inference of the reduction potential of NCEs.
Screening a library of 60 well-known drugs allowed identification of bromocriptine as a relatively strong […] (E=−364 mV), prazosin and chlorpropamide as relatively strong […] (E=747 and 848 mV), which is in agreement with literature data (Wardman P. (1989) Reduction potentials of one-electron couples involving free radicals in aqueous solution. J. Phys. Chem. Ref. Data 18, 1637-1755). Although a reductant drug may exert beneficial therapeutic effects, an oxidant may be toxic. […]

[7] = target: human serum albumin (Homo sapiens, UniProt P02768); details: literature (Westphal 1986); cited from earlier work
[8] = literature (Goodman and Gillman 1996); cited from earlier work
[9] = Volume of distribution in humans; details: human

Chain of bovine serum albumin (P02769 25-607): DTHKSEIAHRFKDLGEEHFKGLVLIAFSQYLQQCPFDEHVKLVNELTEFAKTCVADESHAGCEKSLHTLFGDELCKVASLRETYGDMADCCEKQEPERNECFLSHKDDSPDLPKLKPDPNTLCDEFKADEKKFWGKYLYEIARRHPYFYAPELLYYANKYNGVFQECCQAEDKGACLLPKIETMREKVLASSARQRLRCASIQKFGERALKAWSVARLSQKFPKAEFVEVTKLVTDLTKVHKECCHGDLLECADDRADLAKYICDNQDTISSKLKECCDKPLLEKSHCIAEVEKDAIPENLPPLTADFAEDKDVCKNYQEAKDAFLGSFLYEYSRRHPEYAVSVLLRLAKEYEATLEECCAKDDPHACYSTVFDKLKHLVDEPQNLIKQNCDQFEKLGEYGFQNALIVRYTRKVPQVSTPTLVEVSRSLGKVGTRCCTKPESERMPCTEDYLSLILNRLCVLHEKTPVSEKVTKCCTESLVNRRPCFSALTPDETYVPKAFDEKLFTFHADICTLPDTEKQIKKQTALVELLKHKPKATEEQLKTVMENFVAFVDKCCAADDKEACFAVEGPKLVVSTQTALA
Chain of human serum albumin (P02768 25-609): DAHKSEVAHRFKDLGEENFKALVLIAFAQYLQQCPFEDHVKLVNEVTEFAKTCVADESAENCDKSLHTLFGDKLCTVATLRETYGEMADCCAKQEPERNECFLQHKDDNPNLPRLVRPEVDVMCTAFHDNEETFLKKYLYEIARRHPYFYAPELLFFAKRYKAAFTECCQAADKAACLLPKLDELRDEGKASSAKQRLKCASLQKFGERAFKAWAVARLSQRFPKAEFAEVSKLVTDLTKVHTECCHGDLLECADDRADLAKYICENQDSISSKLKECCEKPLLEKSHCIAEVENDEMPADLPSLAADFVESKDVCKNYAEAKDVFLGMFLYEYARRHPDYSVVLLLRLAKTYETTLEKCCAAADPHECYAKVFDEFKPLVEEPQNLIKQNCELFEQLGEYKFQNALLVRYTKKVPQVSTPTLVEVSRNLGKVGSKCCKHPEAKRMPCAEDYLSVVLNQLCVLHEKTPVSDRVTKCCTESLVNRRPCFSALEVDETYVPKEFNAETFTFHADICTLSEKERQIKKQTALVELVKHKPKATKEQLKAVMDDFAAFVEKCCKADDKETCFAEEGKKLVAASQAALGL

SMILES: CC(=O)Oc1ccccc1C(=O)O [Aspirin, Acetylsalicylic acid]
binder class to the protein (bovine serum albumin) [1]: poor binders

SMILES: CN(C)CCC(c1ccc(Cl)cc1)c1ccccn1 (stereo not shown) [Chlorpheniramine]
binder class to the protein (bovine serum albumin) [1]: medium binders

SMILES: Nc1ccc(S(=O)(=O)c2ccc(N)cc2)cc1 [Dapsone]
pKa [2]: 3.9
pKa from reference [3]: 2.4

pKa [2]: 6.9
SMILES: CC[C@H]1OC(=O)[C@H](C)[C@@H](O[C@H]2C[C@@](C)(OC)[C@@H](O)[C@H](C)O2)[C@H](C)[C@@H](O[C@@H]2O[C@H](C)C[C@H](N(C)C)[C@H]2O)[C@](C)(O)C[C@@H](C)C(=O)[C@H](C)[C@@H](O)[C@]1(C)O [Erythromycine, Erythromycin]
binder class to the protein (bovine serum albumin) [1]: medium binders

pKa [4]: 3
SMILES: CCOc1ccc2ccccc2c1C(=O)N[C@@H]1C(=O)N2[C@@H]1SC(C)(C)[C@@H]2C(=O)O [Nafcillin]

SMILES: CC(=O)Nc1ccc(O)cc1 [Paracetamol]
pKa observed [2]: 9.5
pKa from reference [3]: 9.4

pKa [2]: 7.4
SMILES: C=C[C@H]1C[N@@]2CC[C@H]1C[C@@H]2[C@@H](O)c1ccnc2ccc(OC)cc12 [Quinidine]

SMILES: C=CC1=C(C)/C(=C/c2[nH]c(Cc3[nH]c(/C=C4\NC(=O)C(C)=C4C=C)c(C)c3CCC(=O)O)c(CCC(=O)O)c2C)NC1=O [bilirubin]
bound by serum albumin / by the protein in plasma [5]: ~100%

reduction potential E [6]: 848 mV
SMILES: CCCNC(=O)NS(=O)(=O)c1ccc(Cl)cc1 [chlorpropamide]

SMILES: C[C@H]1O[C@@H](O[C@H]2[C@@H](O)C[C@H](O[C@H]3[C@@H](O)C[C@H](O[C@H]4CC[C@@]5(C)[C@H](CC[C@@H]6[C@@H]5C[C@@H](O)[C@]5(C)[C@@H](C7=CC(=O)OC7)CC[C@]65O)C4)O[C@@H]3C)O[C@@H]2C)C[C@H](O)[C@@H]1O [digoxin, Digoxin]
apparent affinity for human serum albumin determined by dialysis [7]: 1.85.10^5 liters per mole

reduction potential E [6]: 747 mV
SMILES: COc1cc2nc(N3CCN(C(=O)c4ccco4)CC3)nc(N)c2cc1OC [prazosin]

SMILES: Cn1c(=O)c2[nH]cnc2n(C)c1=O [theophylline]
volume of distribution observed experimentally [8]: 0.50±0.16 liters per Kg
Vd [9]: 0.551 L/kg

— patent US20090029391A1, “REAGENTS AND METHODS FOR THE DETERMINATION OF PK/ADME-TOX CHARACTERISTICS OF NEW CHEMICAL ENTITIES AND OF DRUG CANDIDATES” (priority 2007, published 2009)
